Laboratory results published in patent US20170224823A1, “PLATINUM-CATALYZED SILICONE DRUG DELIVERY DEVICES AND METHODS OF USE THEREOF” (priority 2014, published 2017).
Where “and” joins values, the source holds several entries; their conditions need not be identical. Equal entries are not always repeated.

Tests used:
[1] = Raman microscopy to assess drug binding to poly(methylhydrosiloxane); type: physicochemical; settings: Raman microscopy (FIG. 12)
Text: FIG. 12 depicts Raman microscopy studies to assess drug binding to poly(methylhydrosiloxane). LNG: levonorgestrel, DAP: dapivirine, PRG: progesterone, EE: Ethynyl estradiol.
To determine the binding site of compounds to the silicone polymer, Raman spectroscopy studies were undertaken. In the first study, scanning Raman microscopy was used as a method for mapping drug distribution in silicone elastomer films. Thin films were created using NuSil DDU-4320 silicone elastomer and either dapivirine, micronized levonorgestrel, or non-micronized levonorgestrel. 400 points were sampled. In the second study, Raman microscopy was used as a tool to assess binding to poly(methylhydrosiloxane).

[2] = In vitro release from addition-cured (Pt) LSR9-9508-30 matrix vaginal rings; type: physicochemical; settings: for Total release, % of initial drug loading / Time after which release ceased: LSR9-9508-30 matrix rings, 21-day study; for Total release, % of initial drug loading: non-micronized LNG, micronized EE, micronized ET; for Release mechanism: LSR9-9508-30 rings, duration of the 21-day study
Text: (§1) Formulations of dapivirine (DAP or DPV) with a contraceptive hormone were investigated for use with a multipurpose prevention technology (MPT) intravaginal ring system. Dapivirine and non-micronized levonorgestrel (LNG), micronized ethinyl estradiol (EE), or micronized etonogestrel (ET) were studied in condensation cured (Sn) or addition cured (Pt) silicone systems. Matrix-type vaginal rings were manufactured by injection moulding, using either MEDS-6382 (condensation-cured) or LSR9-9508-30 (addition-cured) silicone elastomers. Release of DAP and LNG from the LSR9-9508-30 rings was diffusion-controlled for the duration of the 21-day study. Total DAP release was 41% of the initial loading, while only 29% LNG loading was released. Both drugs would have continued to be released beyond 21 days had the study had continued. However, release of EE and ET ceased after 13 and 8 days respectively, with only 36 and 23% of initial drug loading released.

[3] = system: HIV-1 strains harboring different resistance-inducing mutations; settings: cited from earlier work
wild-type HIV-1 strains = settings: cited from earlier work
Solubility in water = type: physicochemical
[4] = In vitro release from platinum-catalyzed silicone matrix rings (200 mg dapivirine, 32 mg levonorgestrel), storage stability study; type: physicochemical; settings: for Release at week-two time point: rings with micronized levonorgestrel and micronized dapivirine, stored two weeks
Method: Platinum-catalyzed silicone matrix intravaginal rings comprising 200 mg micronized dapivirine and 32 mg levonorgestrel (both micronized and non-micronized) were utilized in this study. FIGS. 1 and 2 depict the mean and cumulative daily release of dapivirine and levonorgestrel versus time for micronized levonorgestrel and micronized dapivirine on storage stability. […] For the non-micronized levonorgestrel rings, there was less than 100% recovery of the amount of levonorgestrel added in two of the rings tested for content after initial release rate testing. […] All of the levonorgestrel release rate results obtained in this study are likely to have been influenced by this phenomenon.

[5] = In vitro release from condensation-cured (Sn) MEDS-6382 matrix vaginal rings; type: physicochemical
Text: as §1

[6] = Recovery from NuSil MED-4870 platinum-catalyzed silicone slabs; type: physicochemical; settings: for % LNG Recoverable: MED-4870 slab
Method: (§2) Methods for assaying the percent of compound having a terminal alkene, alkyne or carbonyl group recoverable from or covalently bound to a platinum-catalyzed silicone intravaginal drug delivery device of the invention are commonly known in the art. For example, silicone intravaginal rings, slabs or IUDs can be added to a glass flask. 5 mL of a 2.5 mg/mL norethindrone solution (NOR; present as an internal standard) in methanol can be added to the flask along with 95 mL of dichlormethane (DCM). The flask can be placed in a rotating orbital incubator set at 37° C. and 60 rpm for 72 hours. A 2 mL aliquot of the cooled extraction mixture can be transferred to a glass centrifuge tube and allowed to evaporate to dryness. The dried samples can be reconstituted in 10 mL of methanol with vortex mixing for 30 seconds and sonication for 40 minutes. A 1:10 dilution of this solution can be prepared using methanol and water such that the final solvent composition is 1:1. This solution and be analyzed by HPLC. Recovery can be expressed as a percentage of predicted compound as compared to the original amount of compound present in the silicone intravaginal ring, slab or IUD. The final data can be corrected based on the recovery of a control solution of known compound concentration that was “extracted” at the same time.
Higher cure temperatures were required for the NuSil MED-4870 system to ensure sufficient curing to allow for slab removal from the molds. […]

[7] = Recovery from NuSil DDU-4320 platinum-catalyzed silicone slabs or rings; type: physicochemical; settings: DDU-4320 slab
Method: as §2
The influence of silicone polymer system cure time, and cure temperature on levonorgestrel was also investigated. With the understanding that the NuSil DDU-4320 could be cured at a lower temperature than NuSil MED-4870, process optimization proceeded with NuSil DDU-4320.
For example, at a cure temperature and time of 100° C. for 7 minutes, approximately 87% of the LNG added was recovered using non-micronized LNG, compared with only 12% for micronized LNG. LNG recovery decreased with increasing cure temperature and cure time for both the micronized and non-micronized LNG. For example, the recovery of micronized LNG falls from 35% to zero as the cure time at 100° C. is increased from 1.5 minutes to 30 minutes. Similarly, the recovery of non-micronized LNG falls from approximately 87% to 59% as the cure temperature is increased from 60° C. to 160° C. at a cure time of 7 minutes.
In an effort to define the maximum possible recovery of contraceptive using the best possible conditions for manufacture, further silicone slabs were prepared with non-micronized LNG. In this case, a low temperature manufacture at 60° C. with a cure time of 6 minutes was compared to a shorter higher temperature cure of 100° C. for 1.5 minutes. In addition, to define precisely the recovery of LNG expected from a ring compared to a slab, intravaginal rings were also prepared under the above conditions. […]

For `Cc1cc(C)c(Nc2ccnc(Nc3ccc(C#N)cc3)n2)c(C)c1` [DAP, 4-[[4-[(2,4,6-trimethylphenyl)amino]-2-pyrimidinyl]amino]benzonitrile], which “Covalent binding to the silicone polymer” value [1] is on record?
Its value is “do not covalently bind”.

And the “Total release, % of initial drug loading” value [2]?
The value was 41%.

And the Release mechanism [2]?
The Release mechanism was “diffusion-controlled”.

And the “Activity against HIV-1 strains harboring resistance-inducing mutations” value [3]?
The value was “potent activity”.

What about the “Activity against wild-type HIV-1 strains” value (wild-type HIV-1 strains) of the same molecule?
The value was “potent activity”.

What about the “Solubility in water” value (Solubility in water) of the same molecule?
Its value is “virtually insoluble in water”.

And the solubility (Solubility in water; water)?
Its solubility is < 1 µg/mL.

What about the “Release at week-two time point” value [4] of the same molecule?
The value was “reasonable dapivirine release”.

For `C#C[C@]1(O)CC[C@H]2[C@@H]3CCc4cc(O)ccc4[C@H]3CC[C@@]21C` [EE, Ethynyl Estradiol], which “Covalent binding to the silicone polymer” value [1] is on record?
The value was “covalently bind”.

What about the “Time after which release ceased” value [2] of the same molecule?
Its value is 13 days.

And the “Total release, % of initial drug loading” value [2]?
The value was 36%.

And the “Total release, MEDS-6382 compared with LSR9-9508-30” value [5]?
Its value is “greater from MEDS-6382 than LSR9-9508-30”.

What does the source list for `C#C[C@]1(O)CC[C@H]2[C@@H]3CCC4=CC(=O)CC[C@@H]4[C@H]3CC[C@@]21CC` [LNG, 13-ethyl-17-ethynyl-17-hydroxy-1,2,6,7,8,9,10,11,12,13,14,15,16,17-tetrad-ecahydrocyclopenta[a]phenanthren-3-one]?
Covalent binding to the silicone polymer [1]: covalently bind; Total release, % of initial drug loading [2]: 29%; Release mechanism [2]: diffusion-controlled; Levonorgestrel content of slab ([6]; NuSil MED-4870 slab heated at 160° C. for 5 minutes): 47%; % LNG Recoverable ([6]; micronized, 120° C., 10 min): 0%; % LNG Recoverable ([6]; micronized, 140° C., 10 min): 0%; % LNG Recoverable ([6]; micronized, 160° C., 1.5 min): 0%; % LNG Recoverable ([6]; micronized, 160° C., 7 min): 0%; % LNG Recoverable ([6]; micronized, 160° C., 10 min): 0%; % LNG Recoverable ([6]; micronized, 160° C., 15 min): 0%; % LNG Recoverable ([6]; micronized, 160° C., 20 min): 0%; % LNG Recoverable ([6]; micronized, 160° C., 30 min): 0%; % LNG Recoverable ([6]; micronized, 160° C., 120 min): 0%; % LNG Recoverable ([6]; micronized, 180° C., 10 min): 0%; % LNG Recoverable ([6]; micronized, 200° C., 10 min): 0%; % LNG Recoverable ([6]; non-micronized, 120° C., 10 min): 65%; % LNG Recoverable ([6]; non-micronized, 140° C., 10 min): 55%; % LNG Recoverable ([6]; non-micronized, 160° C., 1.5 min): 65%; % LNG Recoverable ([6]; non-micronized, 160° C., 7 min): 47%; % LNG Recoverable ([6]; non-micronized, 160° C., 10 min): 60%; % LNG Recoverable ([6]; non-micronized, 160° C., 15 min): 33%; % LNG Recoverable ([6]; non-micronized, 160° C., 20 min): 28%; % LNG Recoverable ([6]; non-micronized, 160° C., 30 min): 10%; % LNG Recoverable ([6]; non-micronized, 160° C., 120 min): 0%; % LNG Recoverable ([6]; non-micronized, 180° C., 10 min): 8%; % LNG Recoverable ([6]; non-micronized, 200° C., 10 min): 0%; % LNG Recoverable ([7]; micronized, 60° C., 7 min): 75%; % LNG Recoverable ([7]; micronized, 80° C., 7 min): 50%; % LNG Recoverable ([7]; micronized, 100° C., 1.5 min): 35% and 37%; % LNG Recoverable ([7]; micronized, 100° C., 3 min): 25%; % LNG Recoverable ([7]; micronized, 100° C., 7 min): 10% and 18%; % LNG Recoverable ([7]; micronized, 100° C., 15 min): 2%; % LNG Recoverable ([7]; micronized, 100° C., 120 min): 0%; % LNG Recoverable ([7]; micronized, 120° C., 7 min): 0%; % LNG Recoverable ([7]; micronized, 140° C., 7 min): 0%; % LNG Recoverable ([7]; micronized, 160° C., 7 min): 0%; % LNG Recoverable ([7]; non-micronized, 80° C., 7 min): 83%; % LNG Recoverable ([7]; non-micronized, 100° C., 3 min): 82%; % LNG Recoverable ([7]; non-micronized, 100° C., 15 min): 85%; % LNG Recoverable ([7]; non-micronized, 100° C., 30 min): 80%; % LNG Recoverable ([7]; non-micronized, 100° C., 120 min): 75%; % LNG Recoverable ([7]; non-micronized, 120° C., 7 min): 83%; % LNG Recoverable ([7]; non-micronized, 140° C., 7 min): 82% and 80%; % LNG Recoverable ([7]; non-micronized, 160° C., 7 min): 58%; % LNG Recoverable ([7]; non-micronized, 160° C., 7 min, listed as levonorgestrel): 59%; Release from platinum catalyzed silicone rings, non-micronized compared to micronized ([4]; non-micronized levonorgestrel): increased release; Release of levonorgestrel detected initially (T0) ([4]; rings with micronized levonorgestrel): negligible release; Release at week-two time point [4]: lack of levonorgestrel release

With `C#C[C@]1(O)CC[C@H]2[C@@H]3CCC4=CC(=O)CC[C@@H]4[C@H]3C(=C)C[C@@]21CC` [ET, etonogestrel] as the molecule, how does the “Time after which release ceased” value [2] read?
The value was 8 days.

What about the “Total release, % of initial drug loading” value [2] of the same molecule?
The value was 23%.

And the “Total release, MEDS-6382 compared with LSR9-9508-30” value [5]?
Its value is “greater from MEDS-6382 than LSR9-9508-30”.

Which “Covalent binding to the silicone polymer” value [1] does the source give for `CC(=O)[C@H]1CC[C@H]2[C@@H]3CCC4=CC(=O)CC[C@]4(C)[C@H]3CC[C@]12C` [PRG, Progesterone] here?
Its value is “covalently bind”.
